How the values were obtained:
[1] = test system: Kuramochi cell line; assay: Cell Viability Assay (Cell Titer-Glo, 7 days); assay type: cell-based; conditions: 168 h, Kuramochi cells, 7 days incubation, read-out: PARG Cell viability (IC50)
How it was run: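 IC50 from a four-parameter fit of CellTiter-Glo luminescence, scaled between DMSO-treated (high) and medium-only (low) wells. Kuramochi cells (400/well, RPMI/10% FBS) exposed 7 days at 37 °C to 9 concentrations, 3-fold steps, in duplicate.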

[2] = target: hPARG (C-terminal His6-tag) (Homo sapiens (Human), UniProt Q86W56); assay: PARG Enzymatic Activity Assay (HTRF); assay type: biochemical; conditions: hPARG 65 pM final, biotinylated-NAD ribosylated PARP1 8 nM final
How it was run: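 Readout is time-resolved fluorescence at 620 and 665 nm after 60 min RT detection with streptavidin-Eu cryptate and anti-6HIS-XL665; IC50 by 4-parameter fit, 1% DMSO and no-enzyme controls. Reaction: 8 nM final ribosylated PARP1 substrate for 10 min RT, following 60 min RT enzyme (65 pM)–compound preincubation in Tris pH 7.4 buffer with EDTA, DTT, KCl.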

Chain of hPARG (C-terminal His6-tag) (Q86W56 whole entry): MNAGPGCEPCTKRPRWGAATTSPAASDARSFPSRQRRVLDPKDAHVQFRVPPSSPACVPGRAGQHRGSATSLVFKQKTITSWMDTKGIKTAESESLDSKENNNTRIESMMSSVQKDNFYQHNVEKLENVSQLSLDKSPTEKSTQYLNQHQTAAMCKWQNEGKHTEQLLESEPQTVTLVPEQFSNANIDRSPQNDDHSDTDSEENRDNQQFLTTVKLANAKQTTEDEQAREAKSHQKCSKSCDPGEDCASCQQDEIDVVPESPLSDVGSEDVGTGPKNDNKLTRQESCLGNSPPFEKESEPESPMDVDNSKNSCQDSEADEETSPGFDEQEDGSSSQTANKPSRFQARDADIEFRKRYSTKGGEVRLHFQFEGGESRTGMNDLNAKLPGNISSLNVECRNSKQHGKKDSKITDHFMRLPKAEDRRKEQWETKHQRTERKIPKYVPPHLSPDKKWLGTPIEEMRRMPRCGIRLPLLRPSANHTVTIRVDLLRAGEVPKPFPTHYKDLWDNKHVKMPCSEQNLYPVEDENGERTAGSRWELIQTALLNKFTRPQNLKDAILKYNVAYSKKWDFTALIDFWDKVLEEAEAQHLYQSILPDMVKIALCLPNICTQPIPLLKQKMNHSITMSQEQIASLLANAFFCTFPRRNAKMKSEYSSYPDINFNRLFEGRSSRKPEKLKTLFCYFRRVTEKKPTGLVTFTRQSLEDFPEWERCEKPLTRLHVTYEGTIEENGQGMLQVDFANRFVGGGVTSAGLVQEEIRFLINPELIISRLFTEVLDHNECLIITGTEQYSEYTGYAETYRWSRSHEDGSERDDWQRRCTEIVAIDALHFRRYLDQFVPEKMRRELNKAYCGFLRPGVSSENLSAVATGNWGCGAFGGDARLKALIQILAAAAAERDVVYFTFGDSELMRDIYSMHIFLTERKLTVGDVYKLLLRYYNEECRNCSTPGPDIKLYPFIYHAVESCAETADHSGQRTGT

SMILES | IC50 [1] [nM] | IC50 [2] [nM]
N#CC1(NS(=O)(=O)c2ccc3c4c(C5CCCCO5)ncnc4n(-c4nnc(C(F)F)s4)c3c2)CC1 (centres unmarked) [Example 83, N-(1-cyanocyclopropyl)-9-(5-(difluoromethyl)-1,3,4-thiadiazol-2-yl)-4-(tetrahydro-2H-pyran-2-yl)-9H-pyrimido[4,5-b]indole-7-sulfonamide] | 100 to 1000 | < 100
CS(=O)(=O)N1CCC(c2ncnc3c2c2ccc(S(=O)(=O)NC4(C#N)CC4)cc2n3-c2nnc(C(F)F)s2)CC1 [Example 121, N-(1-Cyanocyclopropyl)-9-(5-(difluoromethyl)-1,3,4-thiadiazol-2-yl)-4-(1-(methylsulfonyl)piperidin-4-yl)-9H-pyrimido[4,5-b]indole-7-sulfonamide] | < 100 | < 100
C[C@@H]1CN(C(=O)N(C)C)[C@@H](C)CN1c1ncnc2c1c1ccc(S(=O)(=O)NC3(C#N)CC3)cc1n2-c1nnc(C(F)F)s1 [Example 59, (2S,5R)-4-(7-(N-(1-Cyanocyclopropyl)sulfamoyl)-9-(5-(difluoromethyl)-1,3,4-thiadiazol-2-yl)-9H-pyrimido[4,5-b]indol-4-yl)-N,N,2,5-tetramethylpiperazine-1-carboxamide] | < 100 | < 100
COCCN(C)C(=O)N1CCC(c2ncnc3c2c2ccc(S(=O)(=O)NC4(C#N)CC4)cc2n3-c2nnc(C(F)F)s2)CC1 [Example 144, 4-(7-(N-(1-cyanocyclo-propyl)sulfamoyl)-9-(5-(difluoromethyl)-1,3,4-thiadiazol-2-yl)-9H-pyrimido[4,5-b]indol-4-yl)-N-(2-methoxyethyl)-N-methylpiperidine-1-carboxamide] | < 100 | < 100
CC(C)C(=O)N1CCN(c2ncnc3c2c2ccc(S(=O)(=O)NC4(C#N)CC4)cc2n3-c2nnc(C(F)F)s2)C[C@@H]1C [Example 61, (S)-N-(1-cyanocyclopropyl)-9-(5-(difluoromethyl)-1,3,4-thiadiazol-2-yl)-4-(4-isobutyryl-3-methylpiperazin-1-yl)-9H-pyrimido[4,5-b]indole-7-sulfonamide] | < 100 | < 100
C[C@@H]1CN(C(=O)N(C)C)[C@@H](C)CN1c1ncnc2c1c1cc(F)c(S(=O)(=O)NC3(C#N)CC3)cc1n2-c1nnc(C(F)F)s1 [Example 45, (2S,5R)-4-(7-(N-(1-Cyanocyclopropyl)sulfamoyl)-9-(5-(difluoromethyl)-1,3,4-thiadiazol-2-yl)-6-fluoro-9H-pyrimido[4,5-b]indol-4-yl)-N,N,2,5-tetramethylpiperazine-1-carboxamide] | < 100 | < 100
N#CC1(NS(=O)(=O)c2ccc3c4c(N5CCN6C(=O)OC[C@H]6C5)ncnc4n(-c4nnc(C(F)F)s4)c3c2)CC1 [Example 167, (R)-N-(1-cyanocyclopropyl)-9-(5-(difluoromethyl)-1,3,4-thiadiazol-2-yl)-4-(3-oxotetrahydro-3H-oxazolo[3,4-a]pyrazin-7(1H)-yl)-9H-pyrimido[4,5-b]indole-7-sulfonamide] | < 100 | < 100
N#CC1(NS(=O)(=O)c2ccc3c4c(C5CCN(C(=O)[C@@H]6CCCN6)CC5)ncnc4n(-c4nnc(C(F)F)s4)c3c2)CC1 [Example 124, (S)—N-(1-Cyanocyclopropyl)-9-(5-(difluoromethyl)-1,3,4-thiadiazol-2-yl)-4-(1-prolylpiperidin-4-yl)-9H-pyrimido[4,5-b]indole-7-sulfonamide] | 100 to 1000 | < 100
CO[C@@H](C)C(=O)N1CCC(c2ncnc3c2c2ccc(S(=O)(=O)NC4(C)CC4)cc2n3-c2nnc(C(F)F)s2)CC1 [Example 96, (S)-9-(5-(Difluoromethyl)-1,3,4-thiadiazol-2-yl)-4-(1-(2-methoxypropanoyl)piperidin-4-yl)-N-(1-methylcyclopropyl)-9H-pyrimido[4,5-b]indole-7-sulfonamide] | < 100 | < 100
C[C@H]1CN(c2ncnc3c2c2ccc(S(=O)(=O)NC4(C#N)CC4)cc2n3-c2nnc(C(F)F)s2)CCO1 [Example 50, (S)-N-(1-Cyanocyclopropyl)-9-(5-(difluoromethyl)-1,3,4-thiadiazol-2-yl)-4-(2-methylmorpholino)-9H-pyrimido[4,5-b]indole-7-sulfonamide] | < 100 | < 100
CC(C)[S+]([O-])N1CCN(c2ncnc3c2c2ccc(S(=O)(=O)NC4(C#N)CC4)cc2n3-c2nnc(C(F)F)s2)CC1 (centres unmarked) [Example 69, N-(1-Cyanocyclopropyl)-9-(5-(difluoromethyl)-1,3,4-thiadiazol-2-yl)-4-(4-(isopropylsulfinyl)piperazin-1-yl)-9H-pyrimido[4,5-b]indole-7-sulfonamide] | < 100 | < 100
N#CC1(NS(=O)(=O)c2ccc3c4c(N5CCC(O)CC5)ncnc4n(-c4nnc(C(F)F)s4)c3c2)CC1 [Example 189, N-(1-Cyanocyclopropyl)-9-(5-(difluoromethyl)-1,3,4-thiadiazol-2-yl)-4-(4-hydroxypiperidin-1-yl)-9H-pyrimido[4,5-b]indole-7-sulfonamide] | < 100 | < 100
CN(C)C(=O)N1CC=C(c2ncnc3c2c2cc(F)c(S(=O)(=O)NC4(C)CC4)cc2n3-c2nnc(C(F)F)s2)CC1 [Example 81, 4-(9-(5-(Difluoromethyl)-1,3,4-thiadiazol-2-yl)-6-fluoro-7-(N-(1-methylcyclopropyl)sulfamoyl)-9H-pyrimido[4,5-b]indol-4-yl)-N,N-dimethyl-3,6-dihydropyridine-1(2H)-carboxamide] | < 100 | < 100
C[C@H]1CN(c2ncnc3c2c2ccc(S(=O)(=O)NC4(C)CC4)cc2n3-c2nnc(C(F)F)s2)CCN1C(=O)N(C)C [Example 101, (S)-4-(9-(5-(Difluoromethyl)-1,3,4-thiadiazol-2-yl)-7-(N-(1-methylcyclopropyl)sulfamoyl)-9H-pyrimido[4,5-b]indol-4-yl)-N,N,2-trimethylpiperazine-1-carboxamide] | < 100 | < 100
Cc1nc(N2CCN3CCOC[C@H]3C2)c2c3ccc(S(=O)(=O)NC4(C#N)CC4)cc3n(-c3nnc(C(F)F)s3)c2n1 [Example 192, (R)—N-(1-Cyanocyclopropyl)-9-(5-(difluoromethyl)-1,3,4-thiadiazol-2-yl)-4-(hexahydropyrazino[2,1-c][1,4]oxazin-8(1H)-yl)-2-methyl-9H-pyrimido[4,5-b]indole-7-sulfonamide] | < 100 | 100 to 1000
CC(C)C(=O)N1C=CC(c2ncnc3c2c2cc(F)c(S(=O)(=O)NC4(C#N)CC4)cc2n3-c2nnc(C(F)F)s2)CC1 (centres unmarked) [Example 92, N-(1-Cyanocyclopropyl)-9-(5-(difluoromethyl)-1,3,4-thiadiazol-2-yl)-6-fluoro-4-(1-isobutyryl-1,2,3,4-tetrahydropyridin-4-yl)-9H-pyrimido[4,5-b]indole-7-sulfonamide] | < 100 | < 100
CN(C)C(=O)C1CCN(c2ncnc3c2c2ccc(S(=O)(=O)NC4(C#N)CC4)cc2n3-c2nnc(C(F)F)s2)CC1 [Example 179, 1-(7-(N-(1-Cyanocyclopropyl)sulfamoyl)-9-(5-(difluoromethyl)-1,3,4-thiadiazol-2-yl)-9H-pyrimido[4,5-b]indol-4-yl)-N,N-dimethylpiperidine-4-carboxamide] | < 100 | < 100
CN(C)[C@H]1CCN(C(=O)N2CCC(c3ncnc4c3c3ccc(S(=O)(=O)NC5(C#N)CC5)cc3n4-c3nnc(C(F)F)s3)CC2)C1 [Example 136, (S)-N-(1-Cyanocyclo-propyl)-9-(5-(difluoromethyl)-1,3,4-thiadiazol-2-yl)-4-(1-(3-(dimethylamino)pyrrolidine-1-carbonyl)piperidin-4-yl)-9H-pyrimido [4,5-b]indole-7-sulfonamide] | < 100 | < 100
N#CC1(NS(=O)(=O)c2ccc3c4c(N5CCN(C(=O)c6ccc(F)cc6)CC5)ncnc4n(-c4nnc(C(F)F)s4)c3c2)CC1 [Example 13, N-(1-Cyanocyclopropyl)-9-(5-(difluoromethyl)-1,3,4-thiadiazol-2-yl)-4-(4-(4-fluorobenzoyl)piperazin-1-yl)-9H-pyrimido[4,5-b]indole-7-sulfonamide] | 100 to 1000 | 100 to 1000
N#CC1(NS(=O)(=O)c2ccc3c4c(N5CCc6cc(CO)cnc6C5)ncnc4n(-c4nnc(C(F)F)s4)c3c2)CC1 [Example 181, N-(1-Cyanocyclopropyl)-9-(5-(difluoromethyl)-1,3,4-thiadiazol-2-yl)-4-(3-(hydroxymethyl)-5,8-dihydro-1,7-napthyridin-7(6H)-yl)-9H-pyrimido[4,5-b]indole-7-sulfonamide] | 100 to 1000 | < 100
N#CC1(NS(=O)(=O)c2ccc3c4c(N5CCn6c(nnc6C(F)(F)F)C5)ncnc4n(-c4nnc(C(F)F)s4)c3c2)CC1 [Example 156, N-(1-cyanocyclopropyl)-9-(5-(difluoromethyl)-1,3,4-thiadiazol-2-yl)-4-(3-(trifluoromethyl)-5,6-dihydro-[1,2,4]triazolo[4,3-a]pyrazin-7(8H)-yl)-9H-pyrimido[4,5-b]indole-7-sulfonamide] | < 100 | < 100
C[C@@H]1CN(c2ncnc3c2c2ccc(S(=O)(=O)NC4(C#N)CC4)cc2n3-c2nnc(C(F)F)s2)C[C@H](C)N1C(=O)C1COC1 [Example 58, N-(1-Cyanocyclopropyl)-9-(5-(difluoromethyl)-1,3,4-thiadiazol-2-yl)-4-((3S,5R)-3,5-dimethyl-4-(oxetane-3-carbonyl)piperazin-1-yl)-9H-pyrimido[4,5-b]indole-7-sulfonamide] | < 100 | < 100
